Measurements published in ChEMBL document CHEMBL1201862, “PubChem BioAssay data set” (2004).
Active and inactive are the calls of the source.

What was measured:
[1] = target: Dual specificity tyrosine-phosphorylation-regulated kinase 1A (Rattus norvegicus, UniProt Q63470); assay type: biochemical, Homo sapiens
SN12K1 = assay: cells; assay type: functional; details: Homo sapiens
P388 = assay: cells; assay type: functional; details: Mus musculus
P388/ADR = assay: cells; assay type: functional; details: Mus musculus
Tumor necrosis factor = Tumor necrosis factor (Homo sapiens, UniProt P01375); assay: analog potency on TNFa NF-kB signaling – cell-based, revised, SAR follow-up (AID 2337); assay type: functional
Sequence of Tumor necrosis factor (P01375 whole entry): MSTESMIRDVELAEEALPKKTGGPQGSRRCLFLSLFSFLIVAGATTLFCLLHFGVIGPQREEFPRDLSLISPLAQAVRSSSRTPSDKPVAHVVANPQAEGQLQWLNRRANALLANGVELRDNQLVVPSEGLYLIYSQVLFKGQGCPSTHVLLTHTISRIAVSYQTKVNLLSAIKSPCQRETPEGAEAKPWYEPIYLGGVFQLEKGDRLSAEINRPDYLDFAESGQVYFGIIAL

HEK293 = assay: cells; details: Homo sapiens;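 note: cells exposed to compound for 14 hours overnight before viability readout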
Cytochrome P450 3A4 = Cytochrome P450 3A4 (Homo sapiens, UniProt P08684);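 note: CYP3A4 tested as one member of a cytochrome P450 panel screen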
Sequence of Cytochrome P450 3A4 (P08684 whole entry): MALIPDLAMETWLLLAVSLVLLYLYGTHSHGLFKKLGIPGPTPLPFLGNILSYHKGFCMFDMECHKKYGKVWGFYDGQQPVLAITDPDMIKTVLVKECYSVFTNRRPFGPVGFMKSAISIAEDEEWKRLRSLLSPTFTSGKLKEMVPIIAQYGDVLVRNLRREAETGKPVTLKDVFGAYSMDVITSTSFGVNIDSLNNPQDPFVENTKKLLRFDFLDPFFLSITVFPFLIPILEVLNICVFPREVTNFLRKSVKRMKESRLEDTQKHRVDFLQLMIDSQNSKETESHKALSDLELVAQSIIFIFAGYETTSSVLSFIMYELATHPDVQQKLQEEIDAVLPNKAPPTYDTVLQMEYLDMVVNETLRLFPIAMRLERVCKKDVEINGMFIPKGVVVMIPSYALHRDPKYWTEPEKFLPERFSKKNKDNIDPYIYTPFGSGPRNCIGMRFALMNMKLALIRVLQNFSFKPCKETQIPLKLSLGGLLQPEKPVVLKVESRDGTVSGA

Cytochrome P450 1A2 = target: T1, Cytochrome P450 1A2 (Homo sapiens, UniProt P05177);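 note: PubChem cytochrome P450 panel assay, CYP1A2 panel member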
T1 sequence (P05177 whole entry): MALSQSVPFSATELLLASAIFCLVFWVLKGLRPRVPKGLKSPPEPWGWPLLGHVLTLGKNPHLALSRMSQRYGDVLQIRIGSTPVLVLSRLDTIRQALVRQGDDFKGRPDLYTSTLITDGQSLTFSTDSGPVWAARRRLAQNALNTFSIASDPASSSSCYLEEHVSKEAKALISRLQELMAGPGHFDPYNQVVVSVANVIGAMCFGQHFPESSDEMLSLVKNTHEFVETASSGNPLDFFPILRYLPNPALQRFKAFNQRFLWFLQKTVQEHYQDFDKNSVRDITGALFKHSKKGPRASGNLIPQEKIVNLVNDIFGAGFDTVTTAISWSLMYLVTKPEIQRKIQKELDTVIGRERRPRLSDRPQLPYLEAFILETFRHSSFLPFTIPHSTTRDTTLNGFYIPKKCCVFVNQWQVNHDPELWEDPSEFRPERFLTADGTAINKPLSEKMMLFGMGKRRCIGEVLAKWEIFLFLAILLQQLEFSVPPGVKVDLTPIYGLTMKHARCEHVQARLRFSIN

Caspase-3 = target: T2, Caspase-3 (Homo sapiens, UniProt P42574); assay type: functional;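 note: Dose-response selectivity test against caspase-3 for candidate inhibitors of sentrin-specific proteases (SENPs)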
T2 sequence (P42574 whole entry): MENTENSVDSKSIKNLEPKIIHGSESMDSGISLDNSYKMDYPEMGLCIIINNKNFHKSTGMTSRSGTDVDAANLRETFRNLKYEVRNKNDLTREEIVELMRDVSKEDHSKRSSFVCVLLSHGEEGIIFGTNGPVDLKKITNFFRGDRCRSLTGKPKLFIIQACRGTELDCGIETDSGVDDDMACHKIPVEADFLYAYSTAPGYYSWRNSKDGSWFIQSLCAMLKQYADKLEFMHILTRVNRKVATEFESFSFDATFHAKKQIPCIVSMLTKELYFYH

Phospholipase A2 = Phospholipase A2 (Homo sapiens, UniProt P04054); assay type: functional;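 note: confirmatory dose-response counterscreen on phospholipase A2, testing hits that came from an ultra-high-throughput screen for ATG4B inhibitors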
Sequence of Phospholipase A2 (P04054 whole entry): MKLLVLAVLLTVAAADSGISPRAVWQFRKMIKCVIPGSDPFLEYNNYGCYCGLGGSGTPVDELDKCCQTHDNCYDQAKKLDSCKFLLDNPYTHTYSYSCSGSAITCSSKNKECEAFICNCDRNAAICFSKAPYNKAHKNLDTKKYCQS

[2] = target: T3, Sentrin-specific protease 7 (Homo sapiens, UniProt Q9BQF6); assay type: functional;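 note: Luminescence-based dose-response confirmation of ultra-high-throughput screening hits, measuring inhibition of SENP7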
T3 sequence (Q9BQF6 whole entry): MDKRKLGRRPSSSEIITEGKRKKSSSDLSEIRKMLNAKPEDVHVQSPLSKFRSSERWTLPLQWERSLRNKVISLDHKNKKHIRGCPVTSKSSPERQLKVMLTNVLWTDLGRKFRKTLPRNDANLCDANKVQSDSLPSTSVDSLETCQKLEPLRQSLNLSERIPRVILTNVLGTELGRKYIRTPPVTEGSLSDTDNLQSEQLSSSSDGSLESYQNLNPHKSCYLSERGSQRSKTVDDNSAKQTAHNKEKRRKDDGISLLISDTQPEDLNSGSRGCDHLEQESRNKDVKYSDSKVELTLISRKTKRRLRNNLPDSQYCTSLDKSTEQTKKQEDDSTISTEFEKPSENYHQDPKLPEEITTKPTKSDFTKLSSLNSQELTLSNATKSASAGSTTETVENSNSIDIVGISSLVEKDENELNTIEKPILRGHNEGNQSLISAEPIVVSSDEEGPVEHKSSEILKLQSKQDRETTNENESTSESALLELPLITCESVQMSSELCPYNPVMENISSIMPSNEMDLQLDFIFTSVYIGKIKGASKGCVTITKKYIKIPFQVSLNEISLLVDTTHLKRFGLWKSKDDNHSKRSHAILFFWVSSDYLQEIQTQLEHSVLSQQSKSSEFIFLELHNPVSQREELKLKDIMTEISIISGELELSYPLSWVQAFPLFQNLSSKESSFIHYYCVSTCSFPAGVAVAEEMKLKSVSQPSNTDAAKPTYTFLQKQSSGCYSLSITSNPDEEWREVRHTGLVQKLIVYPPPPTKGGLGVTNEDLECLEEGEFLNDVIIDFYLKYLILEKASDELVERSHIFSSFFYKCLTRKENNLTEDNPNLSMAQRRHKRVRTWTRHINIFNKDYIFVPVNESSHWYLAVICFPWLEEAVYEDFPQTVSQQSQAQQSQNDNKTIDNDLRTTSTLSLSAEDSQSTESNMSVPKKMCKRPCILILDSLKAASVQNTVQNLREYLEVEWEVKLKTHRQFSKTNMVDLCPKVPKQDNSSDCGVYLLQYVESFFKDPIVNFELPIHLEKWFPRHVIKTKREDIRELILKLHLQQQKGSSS

[3] = target: T4, Sentrin-specific protease 6 (Homo sapiens, UniProt Q9GZR1); assay type: functional;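 note: Luminescence-based dose-response confirmatory assay of SENP6 inhibition, following up an ultra-high-throughput screen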
T4 sequence (Q9GZR1 whole entry): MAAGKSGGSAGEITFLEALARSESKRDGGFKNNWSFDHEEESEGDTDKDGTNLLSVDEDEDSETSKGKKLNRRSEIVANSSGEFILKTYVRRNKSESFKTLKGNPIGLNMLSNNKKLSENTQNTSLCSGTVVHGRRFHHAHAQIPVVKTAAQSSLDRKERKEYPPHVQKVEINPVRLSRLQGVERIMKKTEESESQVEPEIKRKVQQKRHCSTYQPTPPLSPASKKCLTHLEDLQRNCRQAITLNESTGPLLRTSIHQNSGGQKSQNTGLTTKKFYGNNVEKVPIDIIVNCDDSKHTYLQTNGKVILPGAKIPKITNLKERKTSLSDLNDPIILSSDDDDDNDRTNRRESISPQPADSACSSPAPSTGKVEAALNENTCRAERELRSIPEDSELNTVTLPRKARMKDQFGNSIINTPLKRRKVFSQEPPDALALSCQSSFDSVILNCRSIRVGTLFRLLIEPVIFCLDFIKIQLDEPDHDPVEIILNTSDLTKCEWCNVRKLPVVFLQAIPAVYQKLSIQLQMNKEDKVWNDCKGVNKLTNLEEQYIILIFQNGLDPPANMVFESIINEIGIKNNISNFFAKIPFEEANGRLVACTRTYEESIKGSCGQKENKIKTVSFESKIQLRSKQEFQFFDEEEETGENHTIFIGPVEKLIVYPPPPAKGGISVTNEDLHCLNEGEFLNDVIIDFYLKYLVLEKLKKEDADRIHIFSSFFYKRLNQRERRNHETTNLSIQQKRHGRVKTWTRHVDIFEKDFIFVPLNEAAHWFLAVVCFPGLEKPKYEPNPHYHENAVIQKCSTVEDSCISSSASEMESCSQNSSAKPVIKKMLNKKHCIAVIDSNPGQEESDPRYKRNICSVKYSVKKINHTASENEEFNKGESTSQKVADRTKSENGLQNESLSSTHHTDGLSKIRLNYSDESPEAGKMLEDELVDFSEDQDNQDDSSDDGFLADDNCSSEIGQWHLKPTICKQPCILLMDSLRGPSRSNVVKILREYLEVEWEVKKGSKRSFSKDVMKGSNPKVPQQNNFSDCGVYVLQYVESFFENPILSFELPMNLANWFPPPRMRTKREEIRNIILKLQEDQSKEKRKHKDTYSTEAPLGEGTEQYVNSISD

[4] = target: T5, Sentrin-specific protease 8 (Homo sapiens, UniProt Q96LD8); assay type: functional;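 note: luminescence read-out of SENP8 inhibition, dose-response confirmation following an ultra-high-throughput screen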
T5 sequence (Q96LD8 whole entry): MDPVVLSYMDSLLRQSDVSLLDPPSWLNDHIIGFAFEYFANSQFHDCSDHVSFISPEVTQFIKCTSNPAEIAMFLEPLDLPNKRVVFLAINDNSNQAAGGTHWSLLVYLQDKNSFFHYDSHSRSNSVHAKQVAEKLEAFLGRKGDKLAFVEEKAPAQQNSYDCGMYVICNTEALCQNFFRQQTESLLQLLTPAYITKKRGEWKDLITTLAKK

Cysteine protease ATG4B = target: T6, Cysteine protease ATG4B (Homo sapiens, UniProt Q9Y4P1); assay type: functional;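 note: Fluorescence-based dose-response confirmation assay measuring inhibition of ATG4B activity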
T6 sequence (Q9Y4P1 whole entry): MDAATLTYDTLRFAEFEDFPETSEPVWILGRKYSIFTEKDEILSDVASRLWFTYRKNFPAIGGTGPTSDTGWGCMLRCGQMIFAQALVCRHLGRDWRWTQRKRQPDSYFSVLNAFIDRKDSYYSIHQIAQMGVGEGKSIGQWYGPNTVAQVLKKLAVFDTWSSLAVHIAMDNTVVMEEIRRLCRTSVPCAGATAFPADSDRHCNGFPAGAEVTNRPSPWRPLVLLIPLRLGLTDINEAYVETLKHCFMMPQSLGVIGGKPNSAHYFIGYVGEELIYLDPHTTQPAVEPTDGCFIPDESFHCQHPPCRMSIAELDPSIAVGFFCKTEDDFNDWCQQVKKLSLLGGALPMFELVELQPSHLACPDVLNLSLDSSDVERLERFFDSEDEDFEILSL

[5] = target: Heat shock protein HSP 90-alpha (Homo sapiens, UniProt P07900); assay type: functional, organism-based
[6] = target: T7, Calpain-2 catalytic subunit (Sus scrofa, UniProt P43367); assay: m-calpain protease blockers, concentration series – biochemical, fluorogenic peptide substrate, dose response (AID 1420); assay type: functional
T7 sequence (P43367 whole entry): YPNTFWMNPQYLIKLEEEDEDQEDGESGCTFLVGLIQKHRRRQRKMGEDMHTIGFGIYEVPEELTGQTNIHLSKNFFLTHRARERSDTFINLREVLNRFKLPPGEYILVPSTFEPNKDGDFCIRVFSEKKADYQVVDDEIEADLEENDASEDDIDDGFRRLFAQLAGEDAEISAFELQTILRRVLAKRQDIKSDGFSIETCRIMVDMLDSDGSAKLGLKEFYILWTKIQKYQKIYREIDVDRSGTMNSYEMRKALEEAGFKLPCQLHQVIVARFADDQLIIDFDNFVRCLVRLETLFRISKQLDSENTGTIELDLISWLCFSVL

Coagulation factor XII = target: T8, Coagulation factor XII (Homo sapiens, UniProt P00748); assay type: functional;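 note: activated factor XIIa alpha cleaving a fluorogenic AMC peptide substrate; inhibitor potency from loss of enzyme activity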
T8 sequence (P00748 whole entry): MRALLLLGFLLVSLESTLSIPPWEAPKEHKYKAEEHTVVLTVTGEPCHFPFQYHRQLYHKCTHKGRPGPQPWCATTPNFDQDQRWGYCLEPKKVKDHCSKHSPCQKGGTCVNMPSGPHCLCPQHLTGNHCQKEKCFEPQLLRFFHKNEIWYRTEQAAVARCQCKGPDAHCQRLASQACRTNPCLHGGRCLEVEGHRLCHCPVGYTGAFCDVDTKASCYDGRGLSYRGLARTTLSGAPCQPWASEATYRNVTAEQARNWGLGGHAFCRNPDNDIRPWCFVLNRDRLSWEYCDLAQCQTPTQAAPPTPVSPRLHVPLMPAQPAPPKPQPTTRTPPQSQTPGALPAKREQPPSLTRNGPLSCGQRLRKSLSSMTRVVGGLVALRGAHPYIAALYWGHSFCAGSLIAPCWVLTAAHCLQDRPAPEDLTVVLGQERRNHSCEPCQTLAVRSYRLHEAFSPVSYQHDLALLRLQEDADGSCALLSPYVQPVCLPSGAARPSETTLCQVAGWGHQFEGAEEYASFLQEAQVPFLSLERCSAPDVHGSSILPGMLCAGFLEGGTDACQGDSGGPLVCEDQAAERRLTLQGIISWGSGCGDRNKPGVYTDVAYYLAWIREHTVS

[7] = Luminescence Cell-Based Dose Retest to Confirm Inhibitors of Cancer Stem Cells. [Related pubchem assays (depositor defined):AID2717, AID2721]; assay type: functional; details: Homo sapiens
Cytochrome P450 2C9 = Cytochrome P450 2C9 (Homo sapiens, UniProt P11712)
Sequence of Cytochrome P450 2C9 (P11712 whole entry): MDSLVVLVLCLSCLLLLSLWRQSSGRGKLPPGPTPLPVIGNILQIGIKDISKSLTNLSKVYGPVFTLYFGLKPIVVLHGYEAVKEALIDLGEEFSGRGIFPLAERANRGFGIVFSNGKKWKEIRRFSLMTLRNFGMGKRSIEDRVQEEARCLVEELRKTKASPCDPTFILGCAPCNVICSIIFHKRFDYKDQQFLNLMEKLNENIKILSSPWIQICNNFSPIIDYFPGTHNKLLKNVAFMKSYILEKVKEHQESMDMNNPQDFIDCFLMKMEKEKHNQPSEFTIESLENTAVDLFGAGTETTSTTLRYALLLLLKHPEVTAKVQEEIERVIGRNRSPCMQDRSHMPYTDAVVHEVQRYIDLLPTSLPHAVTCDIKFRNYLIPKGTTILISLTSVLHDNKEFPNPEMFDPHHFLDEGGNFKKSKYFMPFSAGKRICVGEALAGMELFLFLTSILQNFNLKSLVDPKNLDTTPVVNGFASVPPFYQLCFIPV

COc1ccc(/C=C/C(=O)Nc2cccc(C(C)=O)c2)cc1
AC50 [1]: 3.68 µM (active)

O=S(=O)(O)c1cc(/N=[N+](\[O-])c2ccc(/N=N/c3ccccc3)cc2S(=O)(=O)O)ccc1/C=C/c1ccc(/N=[N+](\[O-])c2ccc(/N=N/c3ccccc3)cc2S(=O)(=O)O)cc1S(=O)(=O)O
GI50 (SN12K1): > 31.6 µM (inactive) | GI50 (P388): > 100 µM (inactive)

CCOC(=O)/C(O)=C1\C(=O)N(C)C(=O)C1c1cccc(OC)c1 (centres undefined)
GI50 (SN12K1): > 100 µM (inactive) | GI50 (P388): > 100 µM (inactive) | GI50 (P388/ADR): > 100 µM (inactive)

CN(C)c1ccc(NC(=O)c2ccc(CN3CCc4ccccc43)cc2)cc1
IC50 (Tumor necrosis factor): 5.37 µM (active) | IC50 (HEK293): > 20 µM (inactive)

Cc1cccc(NC(=O)C2(c3ccccc3)CC2(Cl)Cl)c1 (centres undefined)
AC50 (Cytochrome P450 3A4): inconclusive

COc1ccc(-c2nc3cnc(N4CCN(C)CC4)nc3n(Cc3ccc(F)cc3)c2=O)cc1
AC50 (Cytochrome P450 3A4): inconclusive | AC50 (Cytochrome P450 1A2): 10 µM (inconclusive)

COc1cc2c(cc1OC)C(Cl)C(c1ccc(Br)cc1)=C2Cl (centres undefined)
GI50 (SN12K1): 15.6 µM (inactive) | GI50 (P388): 3.94 µM (inactive) | GI50 (P388/ADR): 3.78 µM (inactive)

Cc1ccc(-c2nnc(SCc3ccccc3F)o2)cc1
IC50 (Caspase-3): 17.7 µM (active) | IC50 (Phospholipase A2): 7.21 µM (active) | IC50 [2]: 5.03 µM (active) | IC50 [3]: 14.6 µM (active) | IC50 [4]: 21.4 µM (active) | IC50 (Cysteine protease ATG4B): 14.5 µM (active)

Cc1c(C(=O)N(Cc2ccccc2)Cc2cccs2)cnn1-c1ccc(Cl)cc1
AC50 [5]: 3.44 µM (active) | IC50 [6]: 4.66 µM (not active) | IC50 (Coagulation factor XII): > 50 µM (inactive) | AC50 [7]: 1.77 µM (active)

CCN(CC)CCNC(=O)C1COc2ccc(-c3cc(=O)c4ccccc4o3)cc2O1 (centres undefined)
GI50 (SN12K1): 16.8 µM (inactive) | GI50 (P388): 0.29 µM (active) | GI50 (P388/ADR): 12.3 µM (inactive)

COc1ccc2c(c1)CN([C@H](C)[C@@H]1CC[C@@H]3[C@H]4CC[C@H]5C[C@@H](O)CC[C@@]5(C)[C@H]4CC[C@]31C)CO2
AC50 (Cytochrome P450 2C9): 7.94 µM (inconclusive) | AC50 (Cytochrome P450 3A4): inconclusive
